Measurements published in ChEMBL document CHEMBL2046271, “Terpenes from Copaifera demonstrated in vitro antiparasitic and synergic activity” (J Med Chem, 2012).
The source made the active and inactive calls. The calls are words filed in the database; no cut-off is given here.

Experiments:
Trypanosoma cruzi [1] = test: Antitrypanosomal activity against Trypanosoma cruzi Y epimastigotes assessed as gated cells in lower left quadrant at 400 uM after 3 hrs by propidium iodide staining-based flow cytometric analysis (reference value: 89.35%); type: functional
Trypanosoma cruzi [2] = test: Antitrypanosomal activity against Trypanosoma cruzi Y epimastigotes assessed as gated cells in upper left quadrant at 400 uM after 3 hrs by propidium iodide staining-based flow cytometric analysis (reference value: 3.76%); type: functional
Trypanosoma cruzi [3] = test: Antitrypanosomal activity against Trypanosoma cruzi Y epimastigotes assessed as membranous vacuole formation in all body parts at compound IC50 concentration after 96 hrs by transmission electron microscopic analysis; type: functional, organism-based
Trypanosoma cruzi [4] = test: Antitrypanosomal activity against Trypanosoma cruzi Y epimastigotes after 96 hrs by neubauer chamber; type: functional, organism-based
Trypanosoma cruzi [5] = test: Antitrypanosomal activity against Trypanosoma cruzi Y epimastigotes assessed as gated cells in lower right quadrant at 400 uM after 3 hrs by propidium iodide staining-based flow cytometric analysis (reference value: 5.41%); type: functional
Trypanosoma cruzi [6] = test: Antitrypanosomal activity against Trypanosoma cruzi Y trymastigotes infected in monkey LLC-MK2 cells after 24 hrs by Brenner counter method; type: functional, organism-based; conditions: LLC-MK2, 24 h
Trypanosoma cruzi [7] = test: Antitrypanosomal activity against Trypanosoma cruzi Y infected in monkey LLC-MK2 cells assessed as reduction in number of amastigotes after 96 hrs by Geimsa staining method; type: functional; design: concentration or dose not given beside the values
Trypanosoma cruzi [8] = test: Antitrypanosomal activity against Trypanosoma cruzi Y epimastigotes assessed as gated cells in upper left quadrant at 400 uM after 3 hrs by rhodamine 123 staining-based flow cytometric analysis (reference value: 1.54%); type: functional
Trypanosoma cruzi [9] = test: Antitrypanosomal activity against Trypanosoma cruzi Y epimastigotes assessed as gated cells in upper right quadrant at 400 uM after 3 hrs by rhodamine 123 staining-based flow cytometric analysis (reference value: 94.94%); type: functional
Trypanosoma cruzi [10] = test: Antitrypanosomal activity against Trypanosoma cruzi Y epimastigotes assessed as gated cells in lower left quadrant at 400 uM after 3 hrs by rhodamine 123 staining-based flow cytometric analysis (reference value: 2.40%); type: functional
Trypanosoma cruzi [11] = test: Antitrypanosomal activity against Trypanosoma cruzi Y epimastigotes assessed as lipid peroxidation at 400 uM after 6 hrs; type: functional
Trypanosoma cruzi [12] = test: Antitrypanosomal activity against Trypanosoma cruzi Y epimastigotes assessed as gated cells in lower right quadrant at 400 uM after 3 hrs by rhodamine 123 staining-based flow cytometric analysis (reference value: 1.12%); type: functional
Trypanosoma cruzi [13] = test: Antitrypanosomal activity against Trypanosoma cruzi Y epimastigotes assessed as gated cells in upper right quadrant at 400 uM after 3 hrs by propidium iodide staining-based flow cytometric analysis (reference value: 1.40%); type: functional
[14] = Selectivity ratio of CC50 for monkey LLC-MK2 cells to IC50 for Trypanosoma cruzi Y amastigotes; type: ADME, cell-based; conditions: LLC-MK2 cells versus Trypanosoma cruzi Y amastigotes, read-out: Ratio CC50/IC50
Trypanosoma cruzi [15] = test: Antitrypanosomal activity against Trypanosoma cruzi Y epimastigotes assessed as organelle disorganization at compound IC50 concentration after 96 hrs by transmission electron microscopic analysis; type: functional, organism-based
Trypanosoma cruzi [16] = test: Antitrypanosomal activity against Trypanosoma cruzi Y amastigotes infected in monkey LLC-MK2 cells after 96 hrs by Geimsa staining method; type: functional, organism-based; conditions: LLC-MK2, 96 h
[17] = Toxicity in human RBC assessed as hemolysis after 3 hrs; type: cell-based, Erythrocyte; conditions: red blood cells
[18] = Cytotoxicity against monkey LLC-MK2 cells after 96 hrs by sulforhodamine B assay; type: cell-based, Macaca mulatta; conditions: rhesus monkey
Trypanosoma cruzi [19] = test: Antitrypanosomal activity against Trypanosoma cruzi Y trymastigotes infected in monkey LLC-MK2 cells after 24 hrs by Brenner counter method in presence of copalic; type: functional
Trypanosoma cruzi [20] = test: Antitrypanosomal activity against Trypanosoma cruzi Y trymastigotes infected in monkey LLC-MK2 cells after 24 hrs by Brenner counter method in presence of beta-hydroxycopalic; type: functional
Trypanosoma cruzi [21] = test: Antitrypanosomal activity against Trypanosoma cruzi Y epimastigotes assessed as kinetoplast disorganisation at compound IC50 concentration after 96 hrs by transmission electron microscopic analysis; type: functional, organism-based
Trypanosoma cruzi [22] = test: Antitrypanosomal activity against Trypanosoma cruzi Y epimastigotes assessed as formation of concentric membranous vacuoles at compound IC50 concentration after 96 hrs by transmission electron microscopic analysis; type: functional, organism-based
Trypanosoma cruzi [23] = test: Antitrypanosomal activity against Trypanosoma cruzi Y epimastigotes assessed as pronounced swelling of mitochondria at compound IC50 concentration after 96 hrs by transmission electron microscopic analysis; type: functional, organism-based
[24] = Toxicity in human RBC assessed as hemolysis at 1552 uM after 3 hrs; type: cell-based, Erythrocyte; conditions: red blood cells, read-out: Activity

Row | Compound | IC50 (Trypanosoma cruzi [4]) | IC50 (Trypanosoma cruzi [16]) | Activity (Trypanosoma cruzi [1]) | Activity (Trypanosoma cruzi [2]) | Activity (Trypanosoma cruzi [5]) | EC50 (Trypanosoma cruzi [6]) | Activity (Trypanosoma cruzi [7]) | Activity (Trypanosoma cruzi [8]) | Activity (Trypanosoma cruzi [9]) | Activity (Trypanosoma cruzi [10]) | Activity (Trypanosoma cruzi [11]) | Activity (Trypanosoma cruzi [12]) | Activity (Trypanosoma cruzi [13]) | selectivity ratio [14] | HC50 at 3 h [17] | CC50 at 96 h [18] | other results
1 | C=C1CC[C@@H]2C(C)(C)[C@@H](O)CC[C@@]2(C)[C@@H]1CC/C(C)=C/C(=O)O | 41.2 µM | 1.8 µM | 2.56% | 73% | 0.15% | 453 µM | 40% | 24.06% | 73.66% | 2.27% | inactive | 0.01% | 24.29% | 17.3 | 125 µM | 31.2 µM | Activity (Trypanosoma cruzi [3]): Active; Activity (Trypanosoma cruzi [15]): Active
2 | C=C1CC[C@@H]2[C@](C)(CCC[C@]2(C)C(=O)O)[C@H]1CC/C(C)=C/C(=O)O [AGATHIC ACID] | 86.8 µM | 14.9 µM | 14.2% | 50.32% | 2.51% | 823 µM | 38% | 13.37% | 84.11% | 2.07% | inactive | 0.45% | 32.97% | 3.8 | 1050 µM | 56.8 µM | 
3 | C[C@@H]1[C@H](O)[C@@H](C)/C=C/C=C/C=C/C=C/C=C/C=C/C=C/[C@H](O[C@@H]2O[C@H](C)[C@@H](O)[C@H](N)[C@@H]2O)C[C@@H]2O[C@](O)(C[C@@H](O)C[C@@H](O)[C@H](O)CC[C@@H](O)C[C@@H](O)CC(=O)O[C@H]1C)C[C@H](O)[C@H]2C(=O)O [AMPHOTERICIN B] |  |  |  |  |  |  |  |  |  |  |  |  |  |  | 50.8 µM |  | 
4 | O=C(Cn1ccnc1[N+](=O)[O-])NCc1ccccc1 [BENZNIDAZOLE] | 6.5 µM | 19.2 µM |  |  |  | 34.5 µM |  |  |  |  |  |  |  | 32 | > 1920 µM | 615 µM | fractional inhibitory concentration index (FICI) (Trypanosoma cruzi [19]): 0.95; fractional inhibitory concentration index (FICI) (Trypanosoma cruzi [20]): 1.01
5 | C=C1C[C@@]23CC[C@H]4[C@@](C)(CCC[C@@]4(C)C(=O)O)[C@@H]2CC[C@@H]1C3 [KAURENOIC ACID] | 167 µM | 16.5 µM | 22.65% | 45.55% | 13.27% | 596 µM | 38% | 2.55% | 91.64% | 4.85% | inactive | 0.96% | 18.53% | 4.6 | 464 µM | 76.1 µM | 
6 | C=C1CC[C@@H]2[C@](C)(CCC[C@@]2(C)C(=O)O)[C@H]1CC[C@H](C)CC(=O)O [PINIFOLIC ACID] | 854 µM | 18.6 µM | 91.66% | 3.78% | 3.85% | 1630 µM | 25% | 0.81% | 97.96% | 1.02% | inactive | 0.21% | 0.71% | 13.5 | > 1550 µM | 252 µM | hemolysis at 3 h, 1552 µM [24]: 8%

The next lines start with results.

Row | IC50 (Trypanosoma cruzi [4]) | IC50 (Trypanosoma cruzi [16]) | Compound | Activity (Trypanosoma cruzi [1]) | Activity (Trypanosoma cruzi [2]) | Activity (Trypanosoma cruzi [5]) | EC50 (Trypanosoma cruzi [6]) | Activity (Trypanosoma cruzi [7]) | Activity (Trypanosoma cruzi [8]) | Activity (Trypanosoma cruzi [9]) | Activity (Trypanosoma cruzi [10]) | Activity (Trypanosoma cruzi [11]) | Activity (Trypanosoma cruzi [12]) | Activity (Trypanosoma cruzi [13]) | selectivity ratio [14] | HC50 at 3 h [17] | CC50 at 96 h [18] | other results
7 | 78.4 µM | 63.7 µM | C=C1CC/C=C(\C)CC[C@@H]2[C@@H]1CC2(C)C [BETA-CARYOPHYLLENE] | 9.53% | 78.81% | 0.26% | 1590 µM | 25% | 3.17% | 29.35% | 52.01% | 30% | 15.47% | 11.4% | 26.9 | > 2450 µM | 1720 µM | Activity (Trypanosoma cruzi [21]): Active; fractional inhibitory concentration index (FICI) (Trypanosoma cruzi [19]): 0.12; Activity (Trypanosoma cruzi [22]): Active; fractional inhibitory concentration index (FICI) (Trypanosoma cruzi [20]): 0.86
8 | 42.7 µM | 1.3 µM | C=C1CC[C@@H]2C(C)(C)CCC[C@@]2(C)[C@@H]1CC/C(C)=C/C(=O)O [COPALIC ACID] | 5.17% | 43.58% | 0.71% | 444 µM | 48% | 24.47% | 72.57% | 2.86% | 30% | 0.1% | 50.54% | 30.3 | 65.7 µM | 39.4 µM | Activity (Trypanosoma cruzi [23]): Active
9 | 83.3 µM | 2.5 µM | C=C1CC[C@@H]2C(C)(C)CCC[C@@]2(C)[C@@H]1CC/C(C)=C/C(=O)OC [METHYL COPALATE] | 85.91% | 2.62% | 9.22% | 377 µM | 38% | 0.64% | 98.49% | 0.66% | inactive | 0.21% | 2.25% | 27.6 | 1600 µM | 69.1 µM | 
10 | 168 µM | 28.4 µM | C=C1CC[C@@H]2[C@](C)(CCC[C@@]2(C)C(=O)O)[C@H]1CCc1ccoc1 [POLYALTIC ACID] | 26.71% | 16.7% | 25.8% | 965 µM | 38% | 1.28% | 95.96% | 1.85% | inactive | 0.91% | 29.09% | 2.1 | > 1580 µM | 60.1 µM | 
